The results in this text go back to PubChem BioAssay AID256 (DTP/NCI, 2004).

For this experiment, the system named is CD2F1 mice, L1210 leukemia ip, survival T/C. The experiment is described as follows: NCI In Vivo Anticancer Drug Screen. Data for tumor model L1210 Leukemia (intraperitoneal) in CD2F1 (CDF1) mice. As to conditions: higher = longer survival. An outline of the steps:
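Read-out first: treated-group measurement over vehicle-control measurement, expressed as a ratio. Animals bore a transplanted tumor line and were dosed with compound or vehicle.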

Where [1] appears, read: endpoint: mean survival time, dose: 12.5 mg/kg/injection, schedule: Q01DX009 (ip), vehicle: saline.
Where [2] appears, read: endpoint: mean survival time, dose: 25.0 mg/kg/injection, schedule: Q01DX009 (ip), vehicle: saline.
The mark [3] stands for this setting: endpoint: mean survival time, dose: 50.0 mg/kg/injection, schedule: Q01DX009 (ip), vehicle: saline.
Setting [4] is: endpoint: mean survival time, dose: 100.0 mg/kg/injection, schedule: Q01DX009 (ip), vehicle: saline.
[5] abbreviates: endpoint: mean survival time, dose: 200.0 mg/kg/injection, schedule: Q01DX009 (ip), vehicle: saline.
The mark [6] stands for this setting: endpoint: mean survival time, dose: 100.0 mg/kg/injection, schedule: Q04DX003 (ip), vehicle: saline with Tween-80.
Setting [7] is: endpoint: mean survival time, dose: 200.0 mg/kg/injection, schedule: Q04DX003 (ip), vehicle: saline with Tween-80.
The mark [8] stands for this setting: endpoint: mean survival time, dose: 400.0 mg/kg/injection, schedule: Q04DX003 (ip), vehicle: saline with Tween-80.
[9] abbreviates: endpoint: mean survival time, dose: 100.0 mg/kg/injection, schedule: Q01DX001 (ip), vehicle: saline.
Setting [10] is: endpoint: mean survival time, dose: 200.0 mg/kg/injection, schedule: Q01DX001 (ip), vehicle: saline.
Setting [11] is: endpoint: mean survival time, dose: 400.0 mg/kg/injection, schedule: Q01DX001 (ip), vehicle: saline.
[12] abbreviates: endpoint: mean survival time, dose: 50.0 mg/kg/injection, schedule: Q01DX009 (ip), vehicle: saline with Tween-80.
Where [13] appears, read: endpoint: mean survival time, dose: 100.0 mg/kg/injection, schedule: Q01DX009 (ip), vehicle: saline with Tween-80.
Setting [14] is: endpoint: mean survival time, dose: 200.0 mg/kg/injection, schedule: Q01DX009 (ip), vehicle: saline with Tween-80.
Where [15] appears, read: endpoint: mean survival time, dose: 400.0 mg/kg/injection, schedule: Q01DX009 (ip), vehicle: saline with Tween-80.

Values joined by “and” are separate entries in the source; they are usually repeats but may differ in a detail not shown here. Equal entries are not always repeated. Inconclusive results and toxic doses are left out.

On to `Cc1cn(C2CC3[O][Sn]([c]4ccccc4)([c]4ccccc4)[O]CC3O2)c(=O)[nH]c1=O` (centres undefined), for which the T/C (endpoint: mean survival time, dose: 0.75 mg/kg/injection, schedule: Q01DX005 (ip), vehicle: other) is 90 % of control; the T/C (endpoint: mean survival time, dose: 0.78 mg/kg/injection, schedule: Q01DX005 (ip), vehicle: other) was 96 % of control and 100 % of control; the T/C (endpoint: mean survival time, dose: 1.5 mg/kg/injection, schedule: Q01DX005 (ip), vehicle: other) was 90 % of control; the T/C (endpoint: mean survival time, dose: 1.5 mg/kg/injection, schedule: Q01DX005 (ip), vehicle: saline) is 89 % of control; the T/C (endpoint: mean survival time, dose: 3.0 mg/kg/injection, schedule: Q01DX005 (ip), vehicle: other) was 95 % of control; the T/C (endpoint: mean survival time, dose: 3.0 mg/kg/injection, schedule: Q01DX005 (ip), vehicle: saline) is 89 % of control. Moreover, the T/C runs as follows: (endpoint: mean survival time, dose: 6.0 mg/kg/injection, schedule: Q01DX005 (ip), vehicle: saline) 97 % of control; (endpoint: mean survival time, dose: 6.25 mg/kg/injection, schedule: Q01DX005 (ip), vehicle: other) 203 % of control and 102 % of control and 105 % of control; (endpoint: mean survival time, dose: 6.25 mg/kg/injection, schedule: Q01DX009 (ip), vehicle: saline) 109 % of control; (endpoint: mean survival time, dose: 12.0 mg/kg/injection, schedule: Q01DX005 (ip), vehicle: other) 100 % of control; (endpoint: mean survival time, dose: 12.0 mg/kg/injection, schedule: Q01DX005 (ip), vehicle: saline) 104 % of control; under setting [1], 107 % of control. Also, the T/C (endpoint: mean survival time, dose: 24.0 mg/kg/injection, schedule: Q01DX005 (ip), vehicle: other) was 104 % of control; the T/C (endpoint: mean survival time, dose: 24.0 mg/kg/injection, schedule: Q01DX005 (ip), vehicle: saline) is 103 % of control; the T/C under setting [2] was 113 % of control; the T/C under setting [3] is 110 % of control; the T/C under setting [4] is 103 % of control; the T/C under setting [5] is 115 % of control.

For the compound `Cc1ccc(Cl)cc1S`, the T/C is 98 % of control (endpoint: mean survival time, dose: 75.0 mg/kg/injection, schedule: Q01DX001 (ip), vehicle: saline); 102 % of control (endpoint: mean survival time, dose: 150.0 mg/kg/injection, schedule: Q01DX001 (ip), vehicle: saline); 103 % of control (endpoint: mean survival time, dose: 300.0 mg/kg/injection, schedule: Q01DX001 (ip), vehicle: saline).

Take `CC(C)CC(NC(=O)c1ccccc1)C(=O)O` (centres undefined): the T/C under setting [6] was 95 % of control, the T/C under setting [7] was 95 % of control and the T/C under setting [8] is 101 % of control.

For `O=c1[nH]c(=S)[nH]c2ncn(C3OC(CO)C(O)C3O)c12` (centres undefined), the T/C is, setting by setting: under setting [9], 102 % of control; under setting [10], 100 % of control; under setting [11], 102 % of control.

In the case of `C=CC1CC2CC(C1C)C2(C)C` (centres undefined), the T/C is, setting by setting: under setting [12], 96 % of control; under setting [13], 100 % of control; under setting [14], 104 % of control.

Turning to `CCCCOc1ccc(OCCCC)cc1`, the T/C was 114 % of control (endpoint: mean survival time, dose: 100.0 mg/kg/injection, schedule: Q04DX003 (ip), vehicle: other); 97 % of control (endpoint: mean survival time, dose: 200.0 mg/kg/injection, schedule: Q04DX003 (ip), vehicle: other); 101 % of control (endpoint: mean survival time, dose: 400.0 mg/kg/injection, schedule: Q04DX003 (ip), vehicle: other).

Consider `COC1=N/C=C/C=C\C/C=C/C1`, for which the T/C (endpoint: median survival time, dose: 50.0 mg/kg/injection, schedule: Q04DX002 (ip), vehicle: saline with Tween-80) was 111 % of control; the T/C (endpoint: median survival time, dose: 100.0 mg/kg/injection, schedule: Q04DX002 (ip), vehicle: saline with Tween-80) was 88 % of control; the T/C (endpoint: median survival time, dose: 200.0 mg/kg/injection, schedule: Q04DX002 (ip), vehicle: saline with Tween-80) is 100 % of control; the T/C (endpoint: median survival time, dose: 400.0 mg/kg/injection, schedule: Q04DX002 (ip), vehicle: saline with Tween-80) is 88 % of control.

Take `NCc1ccc(O)c(O)c1`: the T/C was 115 % of control under setting [3]; 118 % of control and 124 % of control under setting [4]; 123 % of control and 124 % of control under setting [5]; 114 % of control (endpoint: mean survival time, dose: 400.0 mg/kg/injection, schedule: Q01DX009 (ip), vehicle: saline); 118 % of control (endpoint: mean survival time, dose: 800.0 mg/kg/injection, schedule: Q01DX009 (ip), vehicle: saline); 111 % of control (endpoint: median survival time, dose: 28.13 mg/kg/injection, schedule: Q03HX024 (ip), vehicle: saline). The T/C by setting is: (endpoint: median survival time, dose: 56.25 mg/kg/injection, schedule: Q03HX024 (ip), vehicle: saline) 110 % of control; (endpoint: median survival time, dose: 300.0 mg/kg/injection, schedule: Q03HX024 (ip), vehicle: saline) 110 % of control.

`Oc1ccccc1C=NCC[N-]CCN=Cc1ccccc1O.[Co]`: the T/C was 115 % of control under setting [1]; 107 % of control (endpoint: mean survival time, dose: 12.5 mg/kg/injection, schedule: Q04DX003 (ip), vehicle: saline); 103 % of control under setting [2]; 100 % of control (endpoint: mean survival time, dose: 25.0 mg/kg/injection, schedule: Q04DX003 (ip), vehicle: saline); 97 % of control under setting [3]; 103 % of control (endpoint: mean survival time, dose: 50.0 mg/kg/injection, schedule: Q04DX003 (ip), vehicle: saline). Where the note is “endpoint: mean survival time, dose: 100.0 mg/kg/injection, schedule: Q04DX003 (ip), vehicle: saline”, the T/C is 107 % of control.

Regarding `CN(C)c1ccc(C(=O)OOOOC(c2ccc(N(C)C)cc2)(c2ccc(N(C)C)cc2)c2ccc(N(C)C)cc2)cc1`, the T/C was 95 % of control (endpoint: mean survival time, dose: 50.0 mg/kg/injection, schedule: Q01DX001 (ip), vehicle: saline); 95 % of control under setting [9]; 107 % of control under setting [10]; 89 % of control under setting [11].

For the compound `c1ccc2c(c1)cnc1cc3c(cc12)ncc1ccccc13`, the T/C was 98 % of control under setting [9], 106 % of control under setting [10] and 116 % of control under setting [11].

Turning to `NP(=O)(OCCC(OCc1ccccc1)OCc1ccccc1)N(CCCl)CCCl` (centres undefined), the T/C is 100 % of control (endpoint: mean survival time, dose: 25.0 mg/kg/injection, schedule: Q01DX001 (ip), vehicle: DMSO); 100 % of control (endpoint: mean survival time, dose: 50.0 mg/kg/injection, schedule: Q01DX001 (ip), vehicle: DMSO); 91 % of control (endpoint: mean survival time, dose: 100.0 mg/kg/injection, schedule: Q01DX001 (ip), vehicle: DMSO); 97 % of control (endpoint: mean survival time, dose: 200.0 mg/kg/injection, schedule: Q01DX001 (ip), vehicle: DMSO); 103 % of control (endpoint: mean survival time, dose: 400.0 mg/kg/injection, schedule: Q01DX001 (ip), vehicle: DMSO).

For `C1=C[S+](c2ccccc2)C(c2ccccc2)c2ccccc21` (centres undefined), the T/C by setting is: (endpoint: mean survival time, dose: 12.5 mg/kg/injection, schedule: Q04DX002 (ip), vehicle: Klucel (hydroxypropylcellulose) (HPC)) 106 % of control; (endpoint: mean survival time, dose: 25.0 mg/kg/injection, schedule: Q04DX002 (ip), vehicle: Klucel (hydroxypropylcellulose) (HPC)) 115 % of control.

As for `C1CC2CCC3CCCC4CCC(C1)C2C34` (centres undefined), the T/C is, setting by setting: under setting [12], 98 % of control; under setting [13], 98 % of control; under setting [6], 98 % of control; under setting [14], 100 % of control; under setting [7], 102 % of control.

`N#CCC(O)(/C=C/c1ccccc1)c1ccccc1` (centres undefined): the T/C under setting [13] is 95 % of control; the T/C under setting [6] is 97 % of control; the T/C under setting [14] is 91 % of control; the T/C under setting [15] is 89 % of control; the T/C under setting [8] was 88 % of control.

With `COCC(=O)c1ccccc1`, the T/C is, setting by setting: under setting [13], 96 % of control; under setting [14], 96 % of control; under setting [15], 94 % of control.
